Results published in patent US9440926B2, “Antiviral compounds and methods” (Biotron Limited, priority 2005, dated 2016).
Read-outs that look alike come from different tables or passages of the source.

Columns and labels:
Type in all cases: cell-based
Vpu = target: T1, Vpu (Human immunodeficiency virus type 1 group M subtype B, UniProt P05919); assay: Bacterial bioassay, Vpu; conditions: mean bacterial bioassay score; Vpu of HIV
T1 construct: expressed in transfected cells
Source text: (§1) The bacterial bioassay method used in the present example to test the anti-viral activity of the compounds against different viral targets was described in detail in PCT/2004/000866, incorporated in its entirety herein by reference. Vpu, p7 and M referred to in the table are small membrane proteins encoded by HIV, HCV and Dengue viruses, respectively, which have functional activities supporting viral growth and/or replication.

HCV p7 = target: T2, HCV p7 (Hepatitis C virus genotype 1a, UniProt P27958); assay: Bacterial bioassay, HCV p7; set-up: scale not given here; conditions: mean bacterial bioassay score; p7 of HCV
T2 construct: expressed in transfected cells
Source text: as §1

Den M = target: T3, Den M (Dengue virus type 1, UniProt P33478); assay: Bacterial bioassay, Den M; set-up: scale not given here; conditions: mean bacterial bioassay score; M protein of Dengue virus
T3 construct: expressed in transfected cells
Source text: as §1

HIV-1 strain Ba-L = assay: HIV-1 Ba-L growth inhibition in primary macrophages (p24 ELISA); conditions: for IC50: Human immunodeficiency virus 1, BAL, Primary macrophage; for AI (Antiviral Index): calculated by formula from TC50 and IC50, HIV-1Ba-L in primary macrophages
Experimental: The inhibition specifically of HIV-1 growth by the compounds of the invention was tested in primary macrophages in vitro using a method similar to that used to assess antibody neutralization (VanCott T C et al (1999)). In the present case, the laboratory adapted HIV-1 strain Ba-L was used, which is known to infect macrophages.
Peripheral Blood Mononuclear Cells (PBMC) were prepared from healthy donors using buffy-coat packs obtained from the Australian Red Cross Blood Service (ARCBS). Blood was received the day following donation, and had been depleted of serum and platelets, leaving a small volume (less than 100 mL) of concentrated leukocytes.
Leukocytes were separated from blood cells and granulocytes by density gradient centrifugation (Ficoll Paque) and washed extensively in PBS^− (without Ca/Mg) to remove platelets. Recovered cells were allowed to adhere to plastic tissue culture flasks (Becton Dickinson) for 2 hr, 37° C., 5% CO2, in media (DMEM (high)/10% AB serum/50 ug/mL gentamicin/2 mM L-glutamine) during which time the myeloid cells formed an adherent monolayer leaving lymphocytes unattached.
Non-adherent lymphocytes were removed by washing with warm PBS^+ (with Ca/Mg) and were generally discarded. In some cases those cells were recovered and frozen in media/10% DMSO for use in viral stock infections. The adherent monocytes were recovered by scraping gently with a plastic cell scraper. The myeloid cells were then plated into 96-well plates at a cell concentration of 1.5×10^6/mL, and allowed to fully differentiate over a period of 14 days.
Macrophages were allowed to differentiate over a 14 day period, with media changes as required. On day 14, cells were infected in the presence of decreasing concentrations of BIT compounds over a range 0-10 μM. Samples of 25 μL culture supernatants were removed from each well on day 7 and fresh media plus compound dilution was added.
After 7 days the samples with and without compound were analysed to assess the level of virus present in the wells, using a p24 ELISA (Innotest). Virus levels in samples were converted to “percentage of control virus growth” values based on the controls (containing no compound). From that dose response curve (example FIG. 1) the IC50 was calculated and used as a measure of compound anti-HIV activity.

[1] = Cytotoxicity to cells in the viral inhibition assay (MTT assay); conditions: human, primary human macrophages, read-out: TC50 (the source's name)
Experimental: The toxicity of test compounds to cells in the viral inhibition assay was determined using the MTT assay (Pauwels R, et al. (1988); D'Cruz O J et al. (1999); Joo H. (2003)). This method utilises Thiazolyl Blue (MTT), which is added to the cell culture (100 ug/well), and incubated for 4-5 hours whilst the live, metabolically active cells convert the chemical to its purple coloured metabolite, which forms intracellular crystals. The purple colour is measured colourimetrically (570-590 nm) once cells have been permeabilised using acidified isopropanol containing 10% triton X-100. The most intense colour development occurs in wells where the metabolising cells are most numerous. […] Those values were estimated manually from the Percentage Viability vs Concentration dose response curves (FIG. 1). The compound toxicity to cells in culture was taken into account in inhibition experiments and in separate experiments involving increased concentrations of compound. TC50 values were estimated in separate experiments (not shown) where concentrations of compound were greater.

[2] = 168 h, against HIV-1Ba-L in primary macrophages, p24 ELISA after 7 days, estimated from dose response curves (FIG. 1), 0-10 μM, read-out: IC50
[3] = 50% cell viability, MTT assay, estimated in separate experiments at greater compound concentrations
[4] = additional compounds, same assay system (HIV-1Ba-L, primary macrophages), estimated from dose response curves, read-out: Estimated IC50
[5] = additional compounds, same assay system, MTT

T3 sequence (P33478 206-280): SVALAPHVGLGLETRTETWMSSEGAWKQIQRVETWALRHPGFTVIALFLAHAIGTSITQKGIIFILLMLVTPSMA
T2 sequence (P27958 747-809): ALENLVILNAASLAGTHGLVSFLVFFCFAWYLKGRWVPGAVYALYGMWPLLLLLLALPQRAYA
T1 sequence (P05919 whole entry): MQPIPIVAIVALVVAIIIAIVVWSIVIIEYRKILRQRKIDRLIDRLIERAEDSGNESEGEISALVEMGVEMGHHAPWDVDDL

| Structure (SMILES) | Average Bacterial Assay Score, Vpu (Vpu) | Average Bacterial Assay Score, HCV p7 (HCV p7) | Average Bacterial Assay Score, Den M (Den M) | IC50 (HIV-1 strain Ba-L; [2]) [µM] | AI (Antiviral Index) (HIV-1 strain Ba-L) | CC50 [1, 3] [µM] | IC50 (HIV-1 strain Ba-L; [4]) [µM] | CC50 [1, 5] [µM] |
| --- | --- | --- | --- | --- | --- | --- | --- | --- |
| N=C(N)NC(=O)C=Cc1cccc(Br)c1 [BIT067, (3-Bromocinnamoyl)guanidine, reference compound] | 2.88 | – | – | – | – | – | – | – |
| N=C(N)NC(=O)C=Cc1cc(Br)ccc1F [BIT124, 5-bromo-2-fluorocinnamoylguanidine, reference compound] | – | 2.25 | – | – | – | – | – | – |
| N=C(N)NC(=O)C=CC=Cc1ccccc1Br [BIT128, 5-(2′-bromophenyl)penta-2,4-dienoylguanidine, reference compound] | – | – | 2.87 | – | – | – | – | – |
| N=C(N)NC(=O)/C=C/c1cccc(C(=O)c2ccccc2)c1 [BIT216, (3-benzoyl)cinnamoylguanidine] | 1.3 | 1.3 | 1.5 | 0.9 | 28-550 | 25 to 495 | – | – |
| N=C(N)NC(=O)/C=C/c1cccc2c1OCO2 [BIT217, 2,3-methylenedioxycinnamoyl guanidine] | 1.8 | 1.0 | – | 1.1 | >91 | > 100 | – | – |
| Cc1cccc2cc(C(=O)NC(=N)N)ccc12 [BIT218, 5-methyl-2-napthoylguanidine] | 1.8 | 1.7 | 1.3 | 1.56 | >192 | > 300 | – | – |
| N=C(N)NC(=O)/C=C/c1cccc2c1CCC2 [BIT222, 3(indan-4-yl)-propenoylguanidine] | 1.2 | 2.0 | 2.2 | > 10 | >10 | > 100 | – | – |
| COc1ccc2cc(C(=O)NC(=N)N)ccc2c1Br [BIT223, 5-bromo-6-methoxy-2-napthoylguanidine] | 0 | 0.0 | – | 0.3 | >1000 | > 300 | – | – |
| N=C(N)NC(=O)c1ccc2c(-c3ccsc3)cccc2c1 [BIT224, 5-thiophen-3-yl-2-naphthoylguanidine] | 2.2 | 1.1 | 1.3 | 1 | >100 | > 200 | – | – |
| Cn1cc(-c2cccc3cc(C(=O)NC(=N)N)ccc23)cn1 [BIT225, 5-(1-methylpyrazol-4-yl)2-naphthoylguanidine] | 1.4 | 1.2 | 0.9 | 2.5 | >80 | > 200 | – | – |
| N=C(N)NC(=O)C=Cc1ccc(Cl)c(Cl)c1 [BIT300, 3,4-dichlorocinnamoyl guanidine] | 1.52 | 0.67 | 3.40 | – | – | – | – | – |
| COc1c(C(=O)NC(=N)N)ccc2ccccc12 [BIT301, (1-methoxy-2-napthoyl)guanidine] | 1.54 | 0.25 | 0.50 | – | – | – | < 2.5 | > 50 |
| COc1cc2ccccc2cc1C(=O)NC(=N)N [BIT302, (3-methoxy-2-napthoyl)guanidine] | 1.04 | 0.42 | 0.50 | – | – | – | < 2.5 | > 50 |
| N=C(N)NC(=O)c1ccc2c(Br)cccc2c1 [BIT303, (5-bromo-2-napthoyl)guanidine] | 0.22 | 0.00 | 2.10 | – | – | – | < 2.5 | 10 to 50 |
| COc1cc(C(=O)NC(=N)N)c(OC)c2ccccc12 [BIT304, (1,4-dimethoxy-2-napthoyl)guanidine] | 0.62 | 0.33 | 1.90 | – | – | – | < 10 | 10 to 50 |
| N=C(N)NC(=O)c1ccc2cc(-c3ccsc3)ccc2c1 [BIT305, (6-(3-thienyl)-2-napthoyl)guanidine] | 0.38 | 0.00 | 1.15 | – | – | – | < 0.63 | < 10 |
| Cc1ccc2cc(C(=O)NC(=N)N)ccc2c1 [BIT306, (6-methyl-2-napthoyl)guanidine] | 0.52 | 0.25 | 2.53 | – | – | – | < 10 | 10 to 50 |
| N=C(N)NC(=O)c1ccc2c(-c3ccccc3)cccc2c1 [BIT307, (5-phenyl-2-napthoyl)guanidine] | 0.12 | 0.08 | 2.40 | – | – | – | < 0.63 | 10 to 50 |
| N=C(N)NC(=O)c1ccc2c(-c3cccs3)cccc2c1 [BIT308, (5-(thien-2-yl)-2-napthoyl)guanidine] | 0.45 | 0.08 | 2.40 | – | – | – | < 0.63 | 10 to 50 |
| CC(=O)O.Cn1cc(-c2ccc3cc(C(=O)NC(=N)N)ccc3c2)cn1 [BIT314, (6-(1-methylpryazol-4-yl)-2-napthoyl)guanidinium acetate] | 0.00 | 3.30 | 1.60 | – | – | – | – | – |
| COc1ccc(-c2cccc3cc(C(=O)NC(=N)N)ccc23)c(OC)n1 [BIT315, (5-(2,6-dimethoxypyridin-3-yl)-2-napthoyl)guanidine] | 0.20 | 0.30 | 1.00 | – | – | – | – | – |
| N=C(N)NC(=O)c1ccc2c(-c3ccccc3Cl)cccc2c1 [BIT316, (5-(2-chlorophenyl)-2-napthoyl)guanidine] | 0.20 | 0.80 | 0.50 | – | – | – | – | – |
| CC(=O)Nc1ccc(-c2cccc3cc(C(=O)NC(=N)N)ccc23)cc1 [BIT317, (5-(4-(acetylamino)phenyl)-2-napthoyl)guanidine] | 0.00 | 0.20 | 0.40 | – | – | – | – | – |
| CC(=O)Nc1cccc(-c2cccc3cc(C(=O)NC(=N)N)ccc23)c1 [BIT318, (5-(3-(acetylamino)phenyl)-2-napthoyl)guanidine] | 2.00 | 0.30 | 0.35 | – | – | – | – | – |
| CS(=O)(=O)Nc1ccc(-c2cccc3cc(C(=O)NC(=N)N)ccc23)cc1 [BIT319, (5-(4-((methylsulphonyl)amino)phenyl)-2-napthoyl)guanidine] | 0.00 | 0.00 | 0.15 | – | – | – | – | – |
